[ ]: non-standard residue; d: D form. Tyr(3-Cl) = N[C@@H](Cc1ccc(O)c(Cl)c1)C(=O)O; Nle = CCCC[C@H](N)C(=O)O; Ac5c = NC1(C(=O)O)CCCC1; Aib = CC(C)(N)C(=O)O
What was measured:
[1] = molecular target: T1, human recombinant GIP receptor (Homo sapiens, UniProt P48546); assay: In vitro hGIP receptor binding assay
T1 construct: expressed in transfected cells; host or cells: CHO-K1 clonal cells (membrane preparation)
T1 sequence (P48546 22-466): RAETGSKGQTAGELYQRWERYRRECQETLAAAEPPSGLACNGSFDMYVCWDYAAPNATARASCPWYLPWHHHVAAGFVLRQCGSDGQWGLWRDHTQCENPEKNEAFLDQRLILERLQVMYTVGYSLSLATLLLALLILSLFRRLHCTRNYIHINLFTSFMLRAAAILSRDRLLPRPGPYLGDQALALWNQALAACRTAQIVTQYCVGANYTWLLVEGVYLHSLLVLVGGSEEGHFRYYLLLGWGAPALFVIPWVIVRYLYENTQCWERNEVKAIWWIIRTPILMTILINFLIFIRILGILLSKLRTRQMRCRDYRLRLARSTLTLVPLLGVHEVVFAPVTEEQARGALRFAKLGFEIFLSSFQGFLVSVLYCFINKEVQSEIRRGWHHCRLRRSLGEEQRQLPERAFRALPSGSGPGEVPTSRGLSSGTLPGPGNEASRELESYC
Procedure: A. In Vitro hGIP Receptor Binding Assay […] The incubations were terminated by rapid filtration through GF/C filters (pre-soaked in 0.5% polyethylenimine) using a Brandel filtration manifold. Each tube and filter were then washed three times with 5-ml aliquots of ice-cold buffer.

insulin secretion = assay: Determination of in vivo insulin secretion in normal rats; settings: fasted male Sprague Dawley rats, compound iv with glucose (1 g/kg), plasma insulin up to 20 minutes post-glucose
Procedure: D. Determination of in vivo Insulin Secretion in Normal Rats Male Sprague Dawley rats with a body weight of approximately 275-300 g were used as experimental subjects. The day prior to the treatment, right atrial cannulae were implanted via the jugular vein under chlorohydrate. Each cannula was filled with 100 u/ml heparin saline and tied. […] The day of the experiment, aliquots of compound were thawed, brought to room temperature and vortexed thoroughly. […] At time 0, a 500 μl blood sample was withdrawn through the cannula. Next, either the vehicle or the appropriate dose of the compound was injected into the cannula and pushed in with the glucose (1 g/kg) or vehicle solution. Finally, 500 μl of volume of heparinized saline (10 u/ml) was used to push in the remaining glucose through the cannula. […] The plasma was collected from the blood samples by centrifugation, and stored at −20° C. until assay for insulin content.

[2] = Human plasma half-life assay; assay type: in vitro ADME; settings: 37° C., LC-MS, read-out: Human Plasma T½ (converted)
[3] = Rat plasma half-life assay; assay type: in vitro ADME; settings: 37° C., LC-MS, read-out: Rat Plasma T½ (converted)

| Compound | Ki [1] | AUC (total insulin secretion) (insulin secretion) | half-life at 0.1 mg/ml [2] | half-life at 0.1 mg/ml [3] |
| --- | --- | --- | --- | --- |
| CC[C@H](C)[C@H](NC(=O)[C@H](CCCCN)NC(=O)[C@H](CC(=O)O)NC(=O)[C@H](CCSC)NC(=O)[C@H](C)NC(=O)[C@@H](NC(=O)C1(NC(=O)[C@H](Cc2ccc(O)cc2)NC(=O)[C@H](CC(=O)O)NC(=O)[C@H](CO)NC(=O)[C@@H](NC(=O)[C@H](Cc2ccccc2)NC(=O)[C@@H](NC(=O)CNC(=O)[C@H](CCC(=O)O)NC(=O)C(C)(C)NC(=O)[C@@H](N)Cc2ccc(O)c(OC)c2)[C@@H](C)O)[C@@H](C)CC)CCCC1)[C@@H](C)CC)C(=O)N[C@@H](Cc1c[nH]cn1)C(=O)N[C@@H](CCC(N)=O)C(=O)N[C@@H](CCC(N)=O)C(=O)N[C@@H](CC(=O)O)C(=O)N[C@@H](Cc1ccccc1)C(=O)N[C@H](C(=O)N[C@@H](CC(N)=O)C(=O)N[C@@H](Cc1c[nH]c2ccccc12)C(=O)N[C@@H](CC(C)C)C(=O)N[C@@H](CC(C)C)C(=O)N[C@@H](C)C(=O)N[C@@H](CCC(N)=O)C(=O)N[C@@H](CCCCN)C(=O)NCC(=O)N[C@@H](CCCCN)C(=O)N[C@@H](CCCCN)C(=O)N[C@@H](CC(N)=O)C(=O)N[C@@H](CC(=O)O)C(=O)N[C@@H](Cc1c[nH]c2ccccc12)C(=O)N[C@@H](CCCCN)C(=O)N[C@@H](Cc1c[nH]cn1)C(=O)N[C@@H](CC(N)=O)C(=O)N[C@H](C(=O)NC1(C(=O)N[C@@H](CCC(N)=O)C(=O)O)CCCC1)[C@@H](C)CC)C(C)C [Example 28, (3MeO-Tyr^1, Aib^2, A5c^11, 41)hGIP(1-42)-OH] | 1.24 nM | 92.88 | > 57 h | 10 h |
| H-[Tyr(3-Cl)][Aib]EGTFISDY[Ac5c]IA[Nle]DKIHQQDFVNWLLAQKGKKNDWKHNITQ-OH [Example 14, (3Cl-Tyr^1, Aib^2, A5c^11, Nle^14)hGIP(1-42)-OH] | 0.42 nM | 189.54 | 52.1 h | 27.4 h |
| CCCC[C@H](NC(=O)[C@H](C)NC(=O)[C@@H](NC(=O)C1(NC(=O)[C@H](Cc2ccc(O)cc2)NC(=O)[C@H](CC(=O)O)NC(=O)[C@H](CO)NC(=O)[C@@H](NC(=O)[C@H](Cc2ccccc2)NC(=O)[C@@H](NC(=O)CNC(=O)[C@H](CCC(=O)O)NC(=O)C(C)(C)NC(=O)[C@@H](N)Cc2c[nH]cn2)[C@@H](C)O)[C@@H](C)CC)CCCC1)[C@@H](C)CC)C(=O)N[C@@H](CC(=O)O)C(=O)N[C@@H](CCCCN)C(=O)N[C@H](C(=O)N[C@@H](Cc1c[nH]cn1)C(=O)N[C@@H](CCC(N)=O)C(=O)N[C@@H](CCC(N)=O)C(=O)N[C@@H](CC(=O)O)C(=O)N[C@@H](Cc1ccccc1)C(=O)N[C@H](C(=O)N[C@@H](CC(N)=O)C(=O)N[C@@H](Cc1c[nH]c2ccccc12)C(=O)N[C@@H](CC(C)C)C(=O)N[C@@H](CC(C)C)C(=O)N[C@@H](C)C(=O)N[C@@H](CCC(N)=O)C(=O)N[C@@H](CCCCN)C(=O)NCC(=O)N[C@@H](CCCCN)C(=O)N[C@@H](CCCCN)C(=O)N[C@@H](CC(N)=O)C(=O)N[C@@H](CC(=O)O)C(=O)N[C@@H](Cc1c[nH]c2ccccc12)C(=O)N[C@@H](CCCCN)C(=O)N[C@@H](Cc1c[nH]cn1)C(=O)N[C@@H](CC(N)=O)C(=O)N[C@H](C(=O)N[C@H](C(=O)N[C@@H](CCC(N)=O)C(=O)O)[C@@H](C)O)[C@@H](C)CC)C(C)C)[C@@H](C)CC [Example 12, (His^1, Aib^2, A5c^11, Nle^14)hGIP(1-42)-OH] | 3.18 nM | – | 82.5 h | 11 h |
| CC[C@H](C)[C@H](NC(=O)[C@H](CCCCN)NC(=O)[C@H](CC(=O)O)NC(=O)[C@H](CCSC)NC(=O)[C@H](C)NC(=O)[C@@H](NC(=O)C1(NC(=O)[C@H](Cc2ccc(O)cc2)NC(=O)[C@H](CC(=O)O)NC(=O)[C@H](CO)NC(=O)[C@@H](NC(=O)[C@H](Cc2ccccc2)NC(=O)[C@@H](NC(=O)CNC(=O)[C@H](CCC(=O)O)NC(=O)C(C)(C)NC(=O)[C@@H](N)Cc2cccc(O)c2)[C@@H](C)O)[C@@H](C)CC)CCCC1)[C@@H](C)CC)C(=O)N[C@@H](Cc1c[nH]cn1)C(=O)N[C@@H](CCC(N)=O)C(=O)N[C@@H](CCC(N)=O)C(=O)N[C@@H](CC(=O)O)C(=O)N[C@@H](Cc1ccccc1)C(=O)N[C@H](C(=O)N[C@@H](CC(N)=O)C(=O)N[C@@H](Cc1c[nH]c2ccccc12)C(=O)N[C@@H](CC(C)C)C(=O)N[C@@H](CC(C)C)C(=O)N[C@@H](C)C(=O)N[C@@H](CCC(N)=O)C(=O)N[C@@H](CCCCN)C(=O)NCC(=O)N[C@@H](CCCCN)C(=O)N[C@@H](CCCCN)C(=O)N[C@@H](CC(N)=O)C(=O)N[C@@H](CC(=O)O)C(=O)N[C@@H](Cc1c[nH]c2ccccc12)C(=O)N[C@@H](CCCCN)C(=O)N[C@@H](Cc1c[nH]cn1)C(=O)N[C@@H](CC(N)=O)C(=O)N[C@H](C(=O)NC1(C(=O)N[C@@H](CCC(N)=O)C(=O)O)CCCC1)[C@@H](C)CC)C(C)C [Example 26, (30H-Phe^1, Aib^2, A5c^11, 41)hGIP(1-42)-OH] | 7.52 nM | – | 26.2 h | 48.8 h |

— patent US8999940B2 (Ipsen Pharma S.A.S., priority 2008, dated 2015)
